Marks after values point to notes of the source that are not given here.
How the values were obtained:
MCP-1 = experiment: Multiplex cytokine assay in colon homogenates: MCP-1; type: in vivo, male Balb/c mice; conditions: AOM/DSS-treated mice, vs control diet
Method: (§1) Colon tissues were homogenized with POLYTRON® homogenizer (Kinematica AG, Switzerland) on ice in the lysis buffer consisting of 150 mM NaCl, 1 mM EDTA (pH 8.0), 20 mM Tris (pH 7.5), 0.5% Tween 20, 10 uM indomethacin (Cayman), and 1× protease inhibitor cocktail (Sigma). Protein concentrations in tissue homogenates were quantified by BCA assay. The concentrations of selected cytokines were analyzed using a Mouse Cytokine Array Proinflammatory Focused 10-Plex Discovery Assay by Eve Technologies (Calgary, AB Canada). The 10-Plex Discovery Assay includes IFNγ, IL-1β, GM-CSF, IL-2, IL-4, IL-6, IL-10, IL-12p70, MCP-1 and TNFα.
(§2) Tumor multiplicity and log transformed tumor area were analyzed by Kruskal-Wallis followed by Mann-Whitney test. Vitamin E and metabolites were compared using Student's t test. For cytokine data, Mann-Whitney test was used to compare two groups including AD vs. non-AD, AD vs. δTE, and AD vs. δTE-13′. PAST 3.24 was used for analysis of Spearman correlation among cytokines and multiple factors. For correlation analysis of gut microbiota and δTE-13′, Spearman correlation tests were performed using RStudio 1.1.456 and adjusted with Benjamini-Hochberg correction to control the false discovery rate for multiple testing. Other statistical analyses are described in figure captions.

[1] = test system: AOM/DSS-induced colon tumorigenesis; experiment: AOM/DSS-induced colon tumorigenesis in mice; type: in vivo, male Balb/c mice; conditions: AOM/DSS-treated mice; δTE/γTE (8/1) 0.035% diet or δTE-13′ 0.04% diet
Method: FIG. 1 illustrates (A) The chemical structures of δTE, γTE and δTE-13′; (B) Metabolism of δTE and δTE-13′; and (C) The study design of AOM/DSS model in mice-Six-seven-week old male Balb/c mice were i.p. injected with AOM at 9.5 mg/kg body weight. A week later, AOM-injected mice were randomized into AIN-93G (control), δTE-supplemented and δTE-13′-supplemented groups. Meanwhile, mice were given 1.5% DSS in drinking water for 1 week. The DSS cycle was repeated after a two-week interval.
δTE-13′ (>92%) used in animal studies was isolated from Garcinia kola seeds based on published procedures. See Jang Y, Park N Y, Rostgaard-Hansen A L, Huang J, Jiang Q. Vitamin E metabolite 13′-carboxychromanols inhibit pro-inflammatory enzymes, induce apoptosis and autophagy in human cancer cells by modulating sphingolipids and suppress colon tumor development in mice. Free Radical Biology & Medicine. 2016;95:190-9. Azoxymethane (AOM) was purchased from Sigma and dextran sodium sulfate (DSS, Mw36,000-50,000 Da) was from MP Biochemicals (Solon, OH). δTE/γTE (8/1) was a gift from American River Nutrition (Hadley, MA). AIN-93G diet was used as the control diet. […]
The animal use protocol was approved by the Animal Care and Use Committee at Purdue University. […] During DSS treatment, we evaluated colitis severity by monitoring body weight, food intake, rectal bleeding and stool consistency. Clinical colitis scores were quantified as follows: bleeding, 0=no blood, 1=feces with blood less than 50%, 2=feces with blood more than 50% but less than 100%, and 3=feces with full blood; stool softness, 0=hard, 1=a bit soft, 2=soft, and 3=very soft.
During tissue harvest, colons were removed, rinsed with cold PBS, cut open longitudinally, and macroscopically examined. The size and number of macroscopic tumors were measured and recorded. […]
Tumor multiplicity and log transformed tumor area were analyzed by Kruskal-Wallis followed by Mann-Whitney test. […]

GM-CSF = experiment: Multiplex cytokine assay in colon homogenates: GM-CSF; type: in vivo, male Balb/c mice; conditions: AOM/DSS-treated mice, vs control diet
Method: as §1, §2

[2] = Concentrations of vitamin E forms and metabolites in plasma and feces; type: in vivo
Method: Vitamin E forms were extracted as previously described. Briefly, plasma tocopherols and metabolites were extracted using a mixture of methanol/hexane (1/2,v/v) in the presence of butylated hydroxytoluene (BHT; 0.8 mM) and ascorbate (0.2 mg/ml). […] The Journal of Nutritional Biochemistry. 2009;20:894-900. For fecal samples, ˜30 mg feces were smashed and homogenized in 2 ml methanol with BHT (0.8 mM) and ascorbate (0.2 mg/ml). After brief centrifugation, a 1.4 ml methanol layer was obtained and added with 200 μl of PBS, and extracted by 5 ml hexane. For plasma and fecal samples, the hexane and methanol layer were used for quantification of vitamin E forms and metabolites, respectively.
Different vitamin E forms were separated on a 150×4.6 mm, 5 μm SUPELCOSIL™ LC-18-DB column (Supelco, Bellefonte, PA), and eluted with 95/5 (v/v) methanol/0.1M lithium acetate (final 25 mM, pH 4.75) at a flow rate of 1.3 ml/min. Tocopherols and tocotrienols were monitored by coulometric detection (Model Coulochem II, ESA Inc., Chelmsford, MA) at 300 (upstream) and 500 mV (down-stream electrode) using a Model 5011 analytical cell
The detailed LC-MS/MS method for analyzing vitamin E metabolites has been previously reported. See Jiang Q, Xu T, Huang J, Jannasch AS, Cooper B, Yang C. Analysis of vitamin E metabolites including carboxychromanols and sulfated derivatives using LC/MS/MS. J Lipid Res. 2015;56:2217-25. Briefly, vitamin E metabolites were quantified based on external standards with internal standards for correction of injection and extraction. The LC-MS/MS analysis was done with an Agilent1200 liquid chromatography system coupled to an Agilent 6460 QQQ mass spectrometer equipped with a jet stream electrospray ionization (ESI) source (Santa Clara, CA). The chromatography utilized an Atlantis dC18 column (2.1×150 mm, 3 μm) from Water's Corporation (Milford, MA). Buffer A and B consisted of acetonitrile/ethanol/water (165/135/700, v/v/v) and acetonitrile/ethanol/water (539/441/20, v/v/v), respectively. The LC gradient ran at 0.3 ml/min as follows: 0-1 min, 0% B; at 30 min, 99% B; at 35 min, 99% B; at 37 min, 0% B. Negative polarity ESI was used with gas temperature of 325° C., gas flow at 10 L/min, nebulizer pressure at 30 psi, sheath gas temperature of 250° C., sheath gas flow at 7 L/min, capillary voltage at 4000V, nozzle voltage at 1500 V, and an electron multiplier voltage of −300 V. All data were evaluated with Agilent MassHunter Qualitative Analysis software, versionB.01.06.

[3] = test system: AOM/DSS-induced colon tumorigenesis; conditions: 0.022% diet; previous study; cited from earlier work
[4] = Body weight, food intake and organ weight during supplementation; type: in vivo, male Balb/c mice; conditions: supplementation for more than two months
Method: The animal use protocol was approved by the Animal Care and Use Committee at Purdue University. After one-weck adaptation, 6-7 weck old male Balb/c mice from Harlan, (Indianapolis, IN) were i.p. injected with AOM at 9.5 mg/kg body weight. A week later, AOM-injected mice were randomized into AIN-93G (control), δTE-supplemented and δTE-13′-supplemented groups. Meanwhile, mice were given 1.5% DSS in drinking water for 1 week. The DSS cycle was repeated after a two-week interval (design outlined in FIG. 1C). During DSS treatment, we evaluated colitis severity by monitoring body weight, food intake, rectal bleeding and stool consistency. Clinical colitis scores were quantified as follows: bleeding, 0=no blood, 1=feces with blood less than 50%, 2=feces with blood more than 50% but less than 100%, and 3=feces with full blood; stool softness, 0=hard, 1=a bit soft, 2=soft, and 3=very soft.

gut microbiota = experiment: Gut microbiota analysis by 16S rRNA gene sequencing of feces; type: in vivo, male Balb/c mice; conditions: for modulatory effect on gut microbes as δTE and δTE-13′: unpublished data by Liu and Jiang
Method: DNAs from ^˜30-40 mg fecal samples were isolated using FASTDNA™ SPIN kit for isolating DNA from soil (MP Biomedicals, Solon, Ohio). The quality of the DNAs was assessed by NanoDrop One (260/280 OD ratio) (Thermo Fisher Scientific. Weltham, Mass.) and 0.8% agarose gel electrophoresis. The DNAs were stained with Hoechst 33258 dye and quantities were determined using a NanoDrop 3300 fluorospectrometer (Thermo Fisher Scientific. Weltham, Mass.).
DNA templates (10 ng) were used for two-step polymerase chain reactions (PCRs) using Q5 High Fidelity DNA Polymerase to minimize errors (New England Biolabs, Ipswich, Mass.). The first PCR reaction is to amplify the 16S rRNA V3 and V4 region (^˜460 bp), with forward primer (343-357: 5′ TAC CGR AGG CAG CAG 3′), and a reverse primer (804-790: 5′ CTA CCR GGG TAT CTA ATCC 3′). which is based on primer accuracy and coverage of phylogenetic information that has been determined for short sequencing reads. Four degenerate bases were added to the 1st cycle forward primers to maximize detected microbial diversity and improve the base-calling accuracy of sequencing. The second PCR is to tag the amplicons with unique barcodes using 8-bp tagged forward and reverse primers (Illumina) (support.illumina.com). The number of PCR cycles were 15 in the first step and 5 in the second step to minimize formation of PCR artifacts. After each PCR, unincorporated primers and nucleotides were removed from PCR amplicons using Agencourt AMPure XP kit (Beckman Coulter). The PCR products were evaluated by 1.2% agarose gel and quantified using a NanoDrop 3300 fluorospectrometer after staining with Quantifluor dsDNA Assay Kit (Promega, Madison, Wis.). Amplicons from each sample were combined in equimolar quantities for 250 bp pair-end sequencing using a MiSeq system (Illumina, San Diego, Calif.).
The raw sequencing data were processed on the QIIME2 platform. The quality of the sequences was checked and bases with low-quality scores (Q less than 30) were trimmed. After denoising, merging and chimeric-checking using DADA2, amplicon sequence variants (ASVs) were aligned with the SILVA 132 marker gene reference database. After rarefaction, microbial alpha diversities were computed using observed OTUs, Faith Phylogenetic Diversity (PD), Piclou evenness and Shannon indices. For beta diversities, principal coordinate analysis (PCoA) was performed using Unweighted UniFrac, Weighted UniFrac, Jaccard and Bray Curtis distance matrices. Permutational (non-parametric) multivariate statistic (perMANOVA) and permutation analysis of multivariate dispersions (PERMDISP) were used to determine beta diversity significance. To identify differential abundant taxa, we performed analysis of composition of microbiomes (ANCOM) followed by Kruskal-Wallis to determine pair-wise significance. ANCOM takes into account the compositional nature of the dataset and compares absolute abundance in the community. Furthermore, we used linear discriminant analysis (LDA) effect size (LEfSe) to identify microbial taxa that are enriched by the dietary treatments. The cutoff for LDA was set at 3.5. In addition, canonical correspondence analysis (CCA) in PAST3 (Paleontological statistics) was used to determine correlation between relative abundances (at the species level) of gut microbial communities and environmental variables including AOM/DSS treatment, δTE, δTE-13′, ratio of colon length/weight (L/W) and large-size tumors. Significance of the model for the correlations was calculated using a Monte Carlo test with 999 permutations.
Tumor multiplicity and log transformed tumor area were analyzed by Kruskal-Wallis followed by Mann-Whitney test. Vitamin E and metabolites were compared using Student's t test. For cytokine data, Mann-Whitney test was used to compare two groups including AD vs. non-AD, AD vs. δTE, and AD vs. δTE-13′. PAST 3.24 was used for analysis of Spearman correlation among cytokines and multiple factors. […]

[5] = ANCOM, compared with control diet in AD-treated or healthy mice
[6] = LEfSe, LDA cutoff 3.5, AOM/DSS-treated mice
[7] = fecal microbiota, AOM/DSS-treated mice, mean ± SEM

C/C(=C\CC/C(C)=C/CCC1(C)CCc2cc(O)cc(C)c2O1)CC/C=C(\C)C(=O)O (centres unmarked) [δTE-13′, δTE-13′-carboxychromanol]
AOM/DSS-induced MCP-1 in colon homogenates (MCP-1): significant reduction | decrease of large size (>2 mm^2) polyps compared with control diet [1]: 55% | decrease of total polyps (total tumor multiplicity) compared with control diet [1]: 25% | decrease of tumor surface area [1]: 38% | AOM/DSS-induced GM-CSF in colon homogenates (GM-CSF): significant reduction | parental compound in the plasma ([2]; δTE-13′ supplementation): did not result in detectable amount | δTE-13′ with 3 DB (the parental compound) in feces ([2]; δTE-13′ supplementation): increased | fecal δTE-13′ with 2 DB relative to that from δTE ([2]; δTE-13′ vs δTE supplementation): significantly higher | plasma concentrations of metabolites relative to those from δTE ([2]; δTE-13′ vs δTE supplementation): about twice as much | large-size tumor multiplicity [3]: significantly suppressed | total tumor multiplicity [3]: significantly suppressed | effect on animals' body weight [4]: did not affect | effect on food intake [4]: did not affect | effect on organ weight [4]: did not affect | AOM/DSS-associated decrease of genus Roseburia (gut microbiota; ANCOM, relative abundance): partially reversed | relative abundance of Streptococccaceae family (gut microbiota; [5]): significantly elevated | relative abundance of genus Lactococcus (gut microbiota; [5]): significantly elevated | Bacteroides (LEfSe) (gut microbiota; [6]): enriched | Parabacteroides goldsteinii CL02T12C30 (LEfSe) (gut microbiota; [6]): enriched | ratio of Firmicutes to Bacteroidetes in feces (gut microbiota; compared with healthy controls): appeared to decrease | alpha diversity: Evenness (gut microbiota; [7]): 0.81 ± 0.01^b | alpha diversity: Faith PD (gut microbiota; [7]): 10.42 ± 0.24^a | alpha diversity: Observed OTU (gut microbiota; [7]): 177.06 ± 8.75^a | alpha diversity: Shannon (gut microbiota; [7]): 6.05 ± 0.07^a

Cc1c(O)cc2c(c1C)O[C@](C)(CCC[C@H](C)CCC[C@H](C)CCCC(C)C)CC2 [γT, γ-tocopherol, reference compound]
modulatory effect on gut microbes as δTE and δTE-13′ (gut microbiota): do not share the same modulatory effect

Cc1c(C)c2c(c(C)c1O)CC[C@@](C)(CCC[C@H](C)CCC[C@H](C)CCCC(C)C)O2 [αT, α-tocopherol, reference compound]
modulatory effect on gut microbes as δTE and δTE-13′ (gut microbiota): do not share the same modulatory effect

Source: patent US20260021137A1, “COMPOSITIONS FOR TREATING COLITIS AND/OR PREVENTING COLON CANCER” (Purdue Research Foundation, priority 2020, published 2026)
